Measured values from patent publication US20140323504A1, “Pyrazolo[4,3-c]Pyridine Derivatives As Kinase Inhibitors” (Cellzome Limited, priority 2011, published 2014).

Key:
Assay type in all cases: biochemical
[1] = target: T1, BTK (Homo sapiens, UniProt Q06187); experiment: Radiometric protein kinase assay (33PanQinase, ProQinase), BTK; details: read-out: BTK enzyme assay IC50
T1 construct: purchased ProQinase GmbH, Freiburg, Germany
Experimental: (§1) A radiometric protein kinase assay (^33PanQinase® Activity Assay; ProQinase GmbH, Freiburg, Germany) was used for measuring the kinase activity of the protein kinases BLK, BTK, ITK and JAK3. All kinase assays were performed in 96-well FlashPlates™ from PerkinElmer (Boston, Mass., USA) in a 50 μl reaction volume. The reaction cocktail was pipetted in four steps in the following order: • 20 μl of assay buffer (standard buffer) • 5 μl of ATP solution (in H2O) • 5 μl of test compound (in 10% DMSO) • 10 μl of substrate/10 μl of enzyme solution (premixed)
(§2) The reaction cocktails were incubated at 30° C. for 60 minutes. The reaction was stopped with 50 μl of 2% (v/v) H3PO4, plates were aspirated and washed two times with 200 μl 0.9% (w/v) NaCl. Incorporation of ^33Pi was determined with a microplate scintillation counter (Microbeta, Wallac). All assays were performed with a BeckmanCoulter/SAGIAN™ Core System.

[2] = target: T2, ITK (Homo sapiens, UniProt Q08881); experiment: Radiometric protein kinase assay (33PanQinase, ProQinase), ITK; details: ATP at apparent Km (1.0 μM); for IC50: read-out: ITK enzyme assay IC50
T2 construct: purchased ProQinase GmbH, Freiburg, Germany
T2 sequence (Q08881 1-620): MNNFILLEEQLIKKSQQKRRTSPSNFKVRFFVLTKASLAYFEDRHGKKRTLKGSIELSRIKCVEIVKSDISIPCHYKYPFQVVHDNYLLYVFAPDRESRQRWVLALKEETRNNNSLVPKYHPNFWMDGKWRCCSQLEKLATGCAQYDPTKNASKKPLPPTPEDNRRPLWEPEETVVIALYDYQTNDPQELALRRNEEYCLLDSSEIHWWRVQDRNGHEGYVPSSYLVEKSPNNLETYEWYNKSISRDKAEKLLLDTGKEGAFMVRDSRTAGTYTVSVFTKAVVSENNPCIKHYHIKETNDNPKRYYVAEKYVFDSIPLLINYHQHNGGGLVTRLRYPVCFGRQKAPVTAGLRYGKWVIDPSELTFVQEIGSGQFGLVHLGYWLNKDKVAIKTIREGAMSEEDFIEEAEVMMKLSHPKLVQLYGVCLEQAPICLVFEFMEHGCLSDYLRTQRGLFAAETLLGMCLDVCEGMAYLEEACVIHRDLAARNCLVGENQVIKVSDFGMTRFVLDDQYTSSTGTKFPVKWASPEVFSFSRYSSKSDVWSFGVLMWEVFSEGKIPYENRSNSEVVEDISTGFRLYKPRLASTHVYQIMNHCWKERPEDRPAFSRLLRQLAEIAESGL
Experimental: as §1, §2

[3] = target: T3, JAK3 (Homo sapiens, UniProt P52333); experiment: Radiometric protein kinase assay (33PanQinase, ProQinase), JAK3; set-up: endogenous in cells; host or cells: mixed Molt4/Ramos cell lysate (1:2); details: read-out: JAK3 enzyme assay IC50
T3 sequence (P52333 1-1124): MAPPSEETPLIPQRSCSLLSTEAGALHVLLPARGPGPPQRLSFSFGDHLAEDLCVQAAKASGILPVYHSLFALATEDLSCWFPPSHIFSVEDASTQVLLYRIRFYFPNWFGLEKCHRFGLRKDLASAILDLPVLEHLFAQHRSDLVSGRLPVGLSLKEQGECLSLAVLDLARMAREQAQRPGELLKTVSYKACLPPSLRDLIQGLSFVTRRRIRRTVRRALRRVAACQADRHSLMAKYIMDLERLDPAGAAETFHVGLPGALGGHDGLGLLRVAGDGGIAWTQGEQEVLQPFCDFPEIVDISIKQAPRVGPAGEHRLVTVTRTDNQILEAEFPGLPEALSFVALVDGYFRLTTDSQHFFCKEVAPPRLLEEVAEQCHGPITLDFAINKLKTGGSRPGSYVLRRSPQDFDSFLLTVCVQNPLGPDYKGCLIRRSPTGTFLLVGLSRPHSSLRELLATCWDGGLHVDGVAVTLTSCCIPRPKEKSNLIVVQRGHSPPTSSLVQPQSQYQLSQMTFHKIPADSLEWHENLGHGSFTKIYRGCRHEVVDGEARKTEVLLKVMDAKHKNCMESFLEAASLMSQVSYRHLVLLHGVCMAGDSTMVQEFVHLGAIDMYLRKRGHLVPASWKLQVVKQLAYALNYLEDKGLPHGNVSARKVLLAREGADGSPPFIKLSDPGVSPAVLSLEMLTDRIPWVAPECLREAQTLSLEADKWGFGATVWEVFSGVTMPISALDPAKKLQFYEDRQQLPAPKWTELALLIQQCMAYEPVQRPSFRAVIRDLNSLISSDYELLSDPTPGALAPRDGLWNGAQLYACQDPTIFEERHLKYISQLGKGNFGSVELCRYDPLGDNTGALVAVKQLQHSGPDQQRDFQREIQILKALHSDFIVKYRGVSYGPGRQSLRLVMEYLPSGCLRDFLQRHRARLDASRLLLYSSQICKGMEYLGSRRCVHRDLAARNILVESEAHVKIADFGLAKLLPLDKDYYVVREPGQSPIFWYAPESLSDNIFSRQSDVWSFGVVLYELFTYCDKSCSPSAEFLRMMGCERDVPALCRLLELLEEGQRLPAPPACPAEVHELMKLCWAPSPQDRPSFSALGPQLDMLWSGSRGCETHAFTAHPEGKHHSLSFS
Experimental: as §1, §2

T1 sequence (Q06187 whole entry): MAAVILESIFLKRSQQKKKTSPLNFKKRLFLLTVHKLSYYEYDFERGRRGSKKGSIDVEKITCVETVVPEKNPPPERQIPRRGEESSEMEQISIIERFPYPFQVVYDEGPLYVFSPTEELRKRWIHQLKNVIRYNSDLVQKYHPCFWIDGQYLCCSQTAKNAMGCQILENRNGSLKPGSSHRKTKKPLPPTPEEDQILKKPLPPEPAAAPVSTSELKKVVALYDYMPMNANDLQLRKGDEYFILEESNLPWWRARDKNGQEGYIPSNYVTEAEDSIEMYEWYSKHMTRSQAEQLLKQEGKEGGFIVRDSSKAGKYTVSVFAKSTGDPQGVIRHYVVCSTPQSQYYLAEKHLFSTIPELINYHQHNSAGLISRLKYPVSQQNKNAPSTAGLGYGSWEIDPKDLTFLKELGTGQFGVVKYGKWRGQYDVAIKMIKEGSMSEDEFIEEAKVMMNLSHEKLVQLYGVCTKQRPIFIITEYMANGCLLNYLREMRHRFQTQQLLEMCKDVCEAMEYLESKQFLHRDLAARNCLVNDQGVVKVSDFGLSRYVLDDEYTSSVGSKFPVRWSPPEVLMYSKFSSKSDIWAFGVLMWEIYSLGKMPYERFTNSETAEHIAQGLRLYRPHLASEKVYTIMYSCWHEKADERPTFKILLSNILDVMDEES

Compound | IC50 [1] [nM] | IC50 [2] [nM] | IC50 [3] [nM] | ITK enzyme assay IC50 [2]
C=CC(=O)Nc1cccc(Cn2ncc3cnc(Nc4cnn(C)c4)nc32)c1 [Example 1, N-(3-((6-((1-Methyl-1H-pyrazol-4-yl)amino)-1H-pyrazolo[3,4-d]pyrimidin-1-yl)methyl)phenyl)acrylamide] | 20 | 230 | 3 | 
CC(=O)Nc1cccc(Cn2ncc3cnc(Nc4cnn(C)c4)nc32)c1 [compound 2, N-(3-((6-((1-methyl-1H-pyrazol-4-yl)amino)-1H-pyrazolo[3,4-d]pyrimidin-1-yl)methyl)phenyl)acetamide, reference compound] | 2000 |  | 290 | inactive
C=CC(=O)Nc1cc(Cn2ncc3cnc(Nc4cnn(C)c4)nc32)ccc1F [Example 2, […]] | 323 |  |  | 
C#CC(=O)Nc1cccc(Cn2ncc3cnc(Nc4cnn(C)c4)nc32)c1 [Example 3, N-(3-((6-((1-Methyl-1H-pyrazol-4-yl)amino)-1H-pyrazolo[3,4-d]pyrimidin-1-yl)methyl)phenyl)propiolamide] | 1 | 3 | 4 | 
C=CS(=O)(=O)Nc1cccc(Cn2ncc3cnc(Nc4cnn(C)c4)nc32)c1 [Example 4, N-(3-((6-((1-Methyl-1H-pyrazol-4-yl)amino)-1H-pyrazolo[3,4-d]pyrimidin-1-yl)methyl)phenyl)ethenesulfonamide] | 20 | 80 | 7 | 
